From US20250188092A1, “RIFAMYCIN ANALOGS” (THE REGENTS OF THE UNIVERSITY OF MICHIGAN, priority 2021, published 2025) come the findings set out here.

The term IC50 denotes the midpoint of a concentration-inhibition curve. Lower therefore signals inhibition by little substance.

The format of data set [1] is in vivo, BALB/c mice. As to conditions: Day 1, Five Day Study, 4 hr.
For the next data set, the system named is VERO cells (ATCC CRL-81). The experiment in a line: Vero cell toxicity. Type of data set: cell-based. As to conditions: Chlorocebus sabaeus, Vero; 72 hours exposure. How it is done:
Cytotoxicity for a mammalian cell line was determined by exposing VERO cells (ATCC CRL-81) to serial dilutions of test compounds for 72 hours, followed by addition of resazurin and measurement of fluorescence after 4 hours incubation (Choules, et al., Antimnicrob. Agents Chemother. 2019, 63, e02204-02218).

Data set [2] is described as follows: Mouse acute efficacy study: mice weight and adverse effects.
The test system of another data set is M. tuberculosis H37Rv. The experiment in a line: Minimum bactericidal concentration (MBC, CFU Assay). Type of data set: cell-based, Mycobacterium tuberculosis.
Data set [3] is classed as in vivo, BALB/c mice. The procedure:
For i.v. dosing, the vehicle DMSO/PEG-400/PBS (1×) (5/60/35) was used. Female ˜20 g BALB/c mice (7-9 weeks old) were used in the study. Three mice were used for each set of conditions. […] Plasma concentrations were determined over 24 hrs in the single day study and on days 1 and 5 in the 5 day study. Lung exposure was also determined in the 1 day study at 24 hrs post dosing and on day 5 of the 5 day study at 4 hrs and 24 hrs post dosing. Compound concentrations were determined by reverse phase HPLC-MS against a standard curve.

The next data set has as its target T1, E. coli WT RNAP (Escherichia coli, UniProt P0A8V2).
T1 construct: made in house
In words: biochemical.

The test system of another data set is M. tuberculosis Erdman. In words: Mouse acute efficacy study (lung CFU). The data set is classed as in vivo, BALB/c mice.
For a further data set, the system named is MTB H37Rv ATCC 27294. In words: MIC, microplate Alamar Blue assay (MABA). The data set is classed as cell-based, Mycobacterium tuberculosis.
The mark [4] stands for this setting: 100 mg/kg QD, PEG-water vehicle.

Several values for one entry are separate records, joined by “and”; a condition that tells them apart may be missing. Equal entries are not always repeated. Where two headings read alike, the source gives them in different places.

T1 sequence (P0A8V2 whole entry): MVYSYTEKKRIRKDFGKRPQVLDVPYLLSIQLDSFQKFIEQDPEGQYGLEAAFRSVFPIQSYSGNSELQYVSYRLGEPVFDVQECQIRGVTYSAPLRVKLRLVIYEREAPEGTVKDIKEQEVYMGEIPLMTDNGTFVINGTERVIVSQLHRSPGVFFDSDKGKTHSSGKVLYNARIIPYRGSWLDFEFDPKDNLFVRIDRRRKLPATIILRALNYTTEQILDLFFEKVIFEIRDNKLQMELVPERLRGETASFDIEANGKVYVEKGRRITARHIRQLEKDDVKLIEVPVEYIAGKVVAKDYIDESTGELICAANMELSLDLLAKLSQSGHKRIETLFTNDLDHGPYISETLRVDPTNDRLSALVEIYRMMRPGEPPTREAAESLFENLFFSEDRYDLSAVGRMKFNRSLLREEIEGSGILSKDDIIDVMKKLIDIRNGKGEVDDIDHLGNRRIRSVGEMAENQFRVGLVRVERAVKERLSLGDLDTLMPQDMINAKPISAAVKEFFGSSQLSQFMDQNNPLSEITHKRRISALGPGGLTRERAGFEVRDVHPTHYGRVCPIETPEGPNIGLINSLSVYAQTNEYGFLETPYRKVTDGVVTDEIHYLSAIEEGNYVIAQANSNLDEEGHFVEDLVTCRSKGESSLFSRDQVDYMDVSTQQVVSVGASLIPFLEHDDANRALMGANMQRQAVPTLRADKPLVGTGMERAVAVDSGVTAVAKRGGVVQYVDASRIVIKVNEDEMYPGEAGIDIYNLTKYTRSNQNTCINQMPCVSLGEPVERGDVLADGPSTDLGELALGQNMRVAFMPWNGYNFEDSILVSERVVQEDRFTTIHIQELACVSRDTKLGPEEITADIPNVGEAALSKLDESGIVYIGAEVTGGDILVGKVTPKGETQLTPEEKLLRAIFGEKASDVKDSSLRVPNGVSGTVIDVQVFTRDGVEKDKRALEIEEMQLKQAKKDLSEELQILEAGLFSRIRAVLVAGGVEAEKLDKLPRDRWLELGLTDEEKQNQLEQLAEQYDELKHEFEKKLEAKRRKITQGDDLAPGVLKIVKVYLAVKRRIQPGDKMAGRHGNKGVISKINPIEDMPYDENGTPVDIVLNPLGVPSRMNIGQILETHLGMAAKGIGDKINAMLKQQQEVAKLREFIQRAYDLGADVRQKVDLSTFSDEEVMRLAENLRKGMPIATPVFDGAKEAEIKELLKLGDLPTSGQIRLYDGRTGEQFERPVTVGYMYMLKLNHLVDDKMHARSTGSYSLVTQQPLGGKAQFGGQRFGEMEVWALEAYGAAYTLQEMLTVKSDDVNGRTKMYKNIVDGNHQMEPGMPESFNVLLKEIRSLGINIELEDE
T1 sequence (P0A8T7 whole entry partner): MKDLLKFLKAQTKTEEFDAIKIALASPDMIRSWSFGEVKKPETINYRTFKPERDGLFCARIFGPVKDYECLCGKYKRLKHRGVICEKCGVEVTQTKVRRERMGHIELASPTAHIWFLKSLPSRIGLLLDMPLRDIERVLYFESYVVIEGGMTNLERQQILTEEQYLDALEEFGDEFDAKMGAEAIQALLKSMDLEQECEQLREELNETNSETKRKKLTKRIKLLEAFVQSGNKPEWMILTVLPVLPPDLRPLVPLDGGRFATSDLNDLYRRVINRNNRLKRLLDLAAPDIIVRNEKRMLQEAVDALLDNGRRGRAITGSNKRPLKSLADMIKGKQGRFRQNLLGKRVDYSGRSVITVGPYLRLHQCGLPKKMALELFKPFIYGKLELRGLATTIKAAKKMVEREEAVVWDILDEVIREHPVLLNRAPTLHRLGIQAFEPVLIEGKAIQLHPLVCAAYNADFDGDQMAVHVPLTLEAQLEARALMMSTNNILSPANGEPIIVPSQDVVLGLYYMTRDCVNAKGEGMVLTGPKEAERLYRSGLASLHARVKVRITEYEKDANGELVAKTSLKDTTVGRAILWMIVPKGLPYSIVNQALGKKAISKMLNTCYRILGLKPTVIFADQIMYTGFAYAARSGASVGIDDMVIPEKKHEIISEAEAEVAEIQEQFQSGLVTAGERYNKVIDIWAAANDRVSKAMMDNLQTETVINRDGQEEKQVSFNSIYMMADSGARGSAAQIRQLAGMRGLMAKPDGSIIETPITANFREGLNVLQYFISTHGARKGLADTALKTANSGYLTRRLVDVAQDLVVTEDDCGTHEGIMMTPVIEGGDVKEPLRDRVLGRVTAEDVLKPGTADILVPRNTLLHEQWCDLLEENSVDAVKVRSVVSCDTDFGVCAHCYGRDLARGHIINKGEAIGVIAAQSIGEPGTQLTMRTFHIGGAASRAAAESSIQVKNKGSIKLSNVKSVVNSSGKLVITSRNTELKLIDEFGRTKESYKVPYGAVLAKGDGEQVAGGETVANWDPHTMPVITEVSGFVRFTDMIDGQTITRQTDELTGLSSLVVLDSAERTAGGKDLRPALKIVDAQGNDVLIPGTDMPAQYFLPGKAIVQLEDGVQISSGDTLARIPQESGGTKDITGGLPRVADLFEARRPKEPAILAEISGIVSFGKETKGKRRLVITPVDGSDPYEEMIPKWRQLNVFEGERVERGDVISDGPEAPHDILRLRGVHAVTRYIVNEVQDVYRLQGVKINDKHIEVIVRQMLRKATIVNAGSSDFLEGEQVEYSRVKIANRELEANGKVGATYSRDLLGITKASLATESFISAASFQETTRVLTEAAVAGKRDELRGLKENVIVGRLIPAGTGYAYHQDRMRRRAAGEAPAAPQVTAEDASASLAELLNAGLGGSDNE
T1 sequence (P0A7Z4 whole entry partner): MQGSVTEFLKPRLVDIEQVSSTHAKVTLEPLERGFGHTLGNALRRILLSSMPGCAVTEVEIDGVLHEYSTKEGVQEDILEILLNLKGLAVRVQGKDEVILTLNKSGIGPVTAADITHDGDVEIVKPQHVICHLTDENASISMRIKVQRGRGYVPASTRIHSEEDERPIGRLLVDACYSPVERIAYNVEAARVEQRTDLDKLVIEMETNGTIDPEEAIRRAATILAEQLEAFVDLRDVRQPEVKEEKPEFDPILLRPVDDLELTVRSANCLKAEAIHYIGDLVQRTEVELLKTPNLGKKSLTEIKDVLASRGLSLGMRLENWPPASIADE
T1 sequence (P0A800 whole entry partner): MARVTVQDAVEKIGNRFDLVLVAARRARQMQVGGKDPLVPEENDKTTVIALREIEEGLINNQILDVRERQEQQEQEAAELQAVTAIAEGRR
T1 sequence (P00579 whole entry partner): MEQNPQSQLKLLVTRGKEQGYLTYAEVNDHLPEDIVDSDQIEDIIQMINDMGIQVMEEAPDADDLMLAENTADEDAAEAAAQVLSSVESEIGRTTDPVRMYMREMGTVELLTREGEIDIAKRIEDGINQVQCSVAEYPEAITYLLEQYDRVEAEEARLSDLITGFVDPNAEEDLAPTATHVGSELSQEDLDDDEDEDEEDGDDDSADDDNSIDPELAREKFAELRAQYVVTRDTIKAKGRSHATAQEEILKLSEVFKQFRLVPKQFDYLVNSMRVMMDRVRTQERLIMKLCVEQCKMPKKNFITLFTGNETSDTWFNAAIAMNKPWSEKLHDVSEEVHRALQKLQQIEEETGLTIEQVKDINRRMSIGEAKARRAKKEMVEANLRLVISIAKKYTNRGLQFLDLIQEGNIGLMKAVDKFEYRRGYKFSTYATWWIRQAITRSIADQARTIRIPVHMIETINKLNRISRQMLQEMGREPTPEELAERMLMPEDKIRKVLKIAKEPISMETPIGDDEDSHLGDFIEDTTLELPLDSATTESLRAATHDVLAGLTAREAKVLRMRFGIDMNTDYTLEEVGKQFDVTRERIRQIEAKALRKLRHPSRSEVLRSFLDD

Consider `CO[C@H]1/C=C/O[C@@]2(C)Oc3c(C)c(O)c4c(=O)c(c5oc6cc(N7CCN(CC(C)C)CC7)cc(OCc7ccc(CN8CCOCC8)cc7)c6nc-5c4c3C2=O)NC(=O)/C(C)=C\C=C\[C@H](C)[C@H](O)[C@@H](C)[C@@H](O)[C@@H](C)[C@H](OC(C)=O)[C@@H]1C` [Compound 17e, (7S,9E,11S,12R,13S,14R,15R,16R,17S,18S,19E,21Z)-2,15,17-Trihydroxy-11-methoxy-3,7,12,14,16,18,22-heptamethyl-30-[4-(2-methylpropyl)piperazin-1-yl]-32-({4-[(morpholin-4-yl)methyl]phenyl}methoxy)-6,23,37-trioxo-8,27,38-trioxa-24,34-diazahexacyclo[23.11.1.1^4,7.0^5,36.0^26,35.0^28,33]octatriaconta-1(36)2,4,9,19,21,25,28,30,32,34-undecaen-13-yl acetate], for which the “Lung Homogenate concentration, Avg” value was 248 ng/mL and 219 nM in data set [1]; 164 ng/mL and 145 nM in data set [3] (Day 1, One Day Study, 24 hr); 323 ng/mL and 286 nM in data set [3] (Day 5, Five Day Study, 4 hr); 41 ng/mL and 36 nM in data set [3] (Day 5, Five Day Study, 24 hr). In addition, the IC50 in the data set on VERO cells (ATCC CRL-81) was over 10 µM; on E. coli WT RNAP, 0.014 µM. The “Mice Weight (g) Day 0” value in [2] (setting [4]) came out at 20.4 g. Moreover, the “Mice Weight (g) Day 31” value in data set [2] (setting [4]) amounted to 21.0 g. For the same compound, the “adverse effects noted in the mice” value in data set [2] (3-week treatment period) is “no adverse effects”. For the same compound, the “MBC better than that of rifampin” value against M. tuberculosis H37Rv is about 5 fold. Moreover, the “Plasma concentration, Avg” value in data set [3] (Day 1, Five Day Study, 4 hr) is 360 ng/mL and 319 nM; in [3] (Day 1, One Day Study, 24 hr), 327 ng/mL and 289 nM; in data set [3] (Day 5, Five Day Study, 4 hr), 688 ng/mL and 608 nM; in data set [3] (Day 5, Five Day Study, 24 hr), 121 ng/mL and 107 nM. Moreover, the “effectiveness versus rifampin control at 15 mg/kg in the same vehicle” value in the data set with M. tuberculosis Erdman (100 mg/kg PO) was “at least equal in effectiveness”. Further, the CFU/Mouse in the data set with M. tuberculosis Erdman (100 mg/kg QD, PEG-water vehicle, day 21) is recorded as 4,029. For the same compound, in the data set with DPX2 cells (6.25 μM, 24 h), the “DPX2 Viability @ 6.25 μM” value stood at 113%. For the same compound, the “DPX2 Viability @ 25 μM” value in the data set on DPX2 cells (human) was 95%. Besides, the “MIC90 MABA Rel to RMP” value in the data set with MTB H37Rv ATCC 27294 is given as 0.12. Also, the MIC in the data set on MTB H37Rv ATCC 27294 (Mycobacterium tuberculosis, MTB H37Rv ATCC 27294, microplate Alamar Blue assay, lowest concentration giving ≥90% reduction in fluorescence, read-out: MIC90 MABA) was determined as 5 nM.
